Earlier results in patent US20250127900A1, “STABLE PHARMACEUTICAL COMPOSITIONS” (MANKIND PHARMA LTD., priority 2021, published 2025).

What was measured:
[1] = for Acceptable intake, EMA: EMA limit; for Acceptable intake, FDA: FDA limit
[2] = in vivo

SMILES	Acceptable intake, EMA [1]	Acceptable intake, FDA [1]	LD50 [2]
CCN(CC)N=O [N-Nitrosodiethylamine]	26.5 ng/day	26.5 ng/day	–
CC(C)N(N=O)C(C)C [N-Nitrosodiisopropylamine]	26.5 ng/day	26.5 ng/day	–
CN(C)N=O [N-Nitrosodimethylamine]	96 ng/day	96 ng/day	10 mg/kg
